{"source": "patent US6518243B1", "about": "“Desleucyl glycopeptide antibiotics and methods of making same” (Trustees of Princeton University, priority 1999, dated 2003)", "assay_type_in_all_cases": "cell-based", "key": {"[1]": {"system": "S. epidermidis (ATCC 12228)", "experiment": "Zone of inhibition screen, 96 well agar array format", "set-up": "scale not given here", "conditions": "zone of inhibition relative to 1 mg/ml p-chlorobiphenylvancomycin", "how_it_was_run": "(§1)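 Read-out is antibacterial activity on agar laid out as a 96-well array; every compound went through all strains of the panel.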"}, "E. faecalis (CL 4877)": {"system": "E. faecalis (CL 4877)", "experiment": "Zone of inhibition screen, 96 well agar array format", "set-up": "scale not given here", "conditions": "zone of inhibition relative to 1 mg/ml p-chlorobiphenylvancomycin", "how_it_was_run": "as §1"}, "S. aureus (ATCC 29213)": {"system": "S. aureus (ATCC 29213)", "experiment": "Zone of inhibition screen, 96 well agar array format", "set-up": "scale not given here", "conditions": "zone of inhibition relative to 1 mg/ml p-chlorobiphenylvancomycin", "how_it_was_run": "as §1"}, "E. faecium ATCC 49624": {"system": "E. faecium ATCC 49624", "experiment": "MIC determination in BHI media, OD600", "conditions": "BHI + 0.1% casamino acids, 18 hours at 37° C., ≧90% OD600 inhibition", "procedure": "(§2) Logarithmically growing cells were diluted to approximately 5×10^5 CFU/ml and subjected to test compounds solubilized and serially diluted in DMSO. […] After 18 hours at 37° C., the OD600 was determined by reading the ninety-six well microtiter plates on a microplate reader. For a given concentration, an MIC determination was made if: […]"}, "S. Aureus ATCC 33591": {"system": "S. Aureus ATCC 33591", "experiment": "MIC determination in BHI media, OD600", "conditions": "BHI + 0.1% casamino acids, 18 hours at 37° C., ≧90% OD600 inhibition", "procedure": "as §2"}, "S aureus ATCC 29213": {"system": "S aureus ATCC 29213", "experiment": "MIC determination in BHI media, OD600", "conditions": "BHI + 0.1% casamino acids, 18 hours at 37° C., ≧90% OD600 inhibition", "procedure": "as §2"}}}
{"smiles": "C=C(CC(=O)OC)C(=O)NC1C(=O)NC(CC(N)=O)C(=O)NC2C(=O)NC3C(=O)NC(C(=O)NC(C(=O)O)c4cc(O)cc(O)c4-c4cc3ccc4O)C(O)c3ccc(c(Cl)c3)Oc3cc2cc(c3OC2OC(CO)C(O)C(O)C2OC2CC(C)(NCc3ccc(-c4ccc(Cl)cc4)cc3)C(O)C(C)O2)Oc2ccc(cc2Cl)C1O", "note": "(stereo not drawn) [Compound 293]", "values": [{"measurement": "zone score, S. epidermidis ATCC 12228", "setting": "[1]", "value": 2}, {"measurement": "zone score, E. faecalis CL 4877", "setting": "E. faecalis (CL 4877)", "value": 2}, {"measurement": "zone score, S. aureus ATCC 29213", "setting": "S. aureus (ATCC 29213)", "value": 2}]}
{"smiles": "CC1OC(OC2C(Oc3c4cc5cc3Oc3ccc(cc3Cl)C(O)C3NC(=O)C(NC(=O)C5NC(=O)C(CC(N)=O)NC(=O)C(NC(=O)c5ccccc5SCCS(=O)(=O)c5ccc(Cl)cc5)C(O)c5ccc(c(Cl)c5)O4)c4ccc(O)c(c4)-c4c(O)cc(O)cc4C(C(=O)O)NC3=O)OC(CO)C(O)C2O)CC(C)(NCc2ccc(-c3ccc(Cl)cc3)cc2)C1O", "note": "(stereo not drawn) [Compound 301]", "values": [{"measurement": "zone score, S. epidermidis ATCC 12228", "setting": "[1]", "value": 2}, {"measurement": "zone score, E. faecalis CL 4877", "setting": "E. faecalis (CL 4877)", "value": 2}, {"measurement": "zone score, S. aureus ATCC 29213", "setting": "S. aureus (ATCC 29213)", "value": 2}]}
{"smiles": "CC1OC(OC2C(Oc3c4cc5cc3Oc3ccc(cc3Cl)C(O)C3NC(=O)C(NC(=O)C5NC(=O)C(CC(N)=O)NC(=O)C(NC(=O)c5ccccn5)C(O)c5ccc(c(Cl)c5)O4)c4ccc(O)c(c4)-c4c(O)cc(O)cc4C(C(=O)O)NC3=O)OC(CO)C(O)C2O)CC(C)(NCc2ccc(-c3ccc(Cl)cc3)cc2)C1O", "note": "(stereo not drawn) [Compound 312]", "values": [{"measurement": "zone score, S. epidermidis ATCC 12228", "setting": "[1]", "value": 2}, {"measurement": "zone score, E. faecalis CL 4877", "setting": "E. faecalis (CL 4877)", "value": 2}, {"measurement": "zone score, S. aureus ATCC 29213", "setting": "S. aureus (ATCC 29213)", "value": 2}]}
{"smiles": "CC1OC(OC2C(Oc3c4cc5cc3Oc3ccc(cc3Cl)C(O)C3NC(=O)C(NC(=O)C5NC(=O)C(CC(N)=O)NC(=O)C(NC(=O)c5cccc[n+]5[O-])C(O)c5ccc(c(Cl)c5)O4)c4ccc(O)c(c4)-c4c(O)cc(O)cc4C(C(=O)O)NC3=O)OC(CO)C(O)C2O)CC(C)(NCc2ccc(-c3ccc(Cl)cc3)cc2)C1O", "note": "(stereo not drawn) [Compound 313]", "values": [{"measurement": "zone score, S. epidermidis ATCC 12228", "setting": "[1]", "value": 2}, {"measurement": "zone score, E. faecalis CL 4877", "setting": "E. faecalis (CL 4877)", "value": 2}, {"measurement": "zone score, S. aureus ATCC 29213", "setting": "S. aureus (ATCC 29213)", "value": 2}]}
{"smiles": "CC(=O)C(=O)NC1C(=O)NC(CC(N)=O)C(=O)NC2C(=O)NC3C(=O)NC(C(=O)NC(C(=O)O)c4cc(O)cc(O)c4-c4cc3ccc4O)C(O)c3ccc(c(Cl)c3)Oc3cc2cc(c3OC2OC(CO)C(O)C(O)C2OC2CC(C)(NCc3ccc(-c4ccc(Cl)cc4)cc3)C(O)C(C)O2)Oc2ccc(cc2Cl)C1O", "note": "(stereo not drawn) [Compound 314]", "values": [{"measurement": "zone score, S. epidermidis ATCC 12228", "setting": "[1]", "value": 2}, {"measurement": "zone score, E. faecalis CL 4877", "setting": "E. faecalis (CL 4877)", "value": 2}, {"measurement": "zone score, S. aureus ATCC 29213", "setting": "S. aureus (ATCC 29213)", "value": 2}]}
{"smiles": "CC1OC(OC2C(Oc3c4cc5cc3Oc3ccc(cc3Cl)C(O)C3NC(=O)C(NC(=O)C5NC(=O)C(CC(N)=O)NC(=O)C(NC(=O)C=Cc5c[nH]cn5)C(O)c5ccc(c(Cl)c5)O4)c4ccc(O)c(c4)-c4c(O)cc(O)cc4C(C(=O)O)NC3=O)OC(CO)C(O)C2O)CC(C)(NCc2ccc(-c3ccc(Cl)cc3)cc2)C1O", "note": "(stereo not drawn) [Compound 321]", "values": [{"measurement": "zone score, S. epidermidis ATCC 12228", "setting": "[1]", "value": 2}, {"measurement": "zone score, E. faecalis CL 4877", "setting": "E. faecalis (CL 4877)", "value": 2}, {"measurement": "zone score, S. aureus ATCC 29213", "setting": "S. aureus (ATCC 29213)", "value": 2}]}
{"smiles": "COCCC(N)C(=O)NC1C(=O)NC(CC(N)=O)C(=O)NC2C(=O)NC3C(=O)NC(C(=O)NC(C(=O)O)c4cc(O)cc(O)c4-c4cc3ccc4O)C(O)c3ccc(c(Cl)c3)Oc3cc2cc(c3OC2OC(CO)C(O)C(O)C2OC2CC(C)(NCc3ccc(-c4ccc(Cl)cc4)cc3)C(O)C(C)O2)Oc2ccc(cc2Cl)C1O", "note": "(stereo not drawn) [Compound 322]", "values": [{"measurement": "zone score, S. epidermidis ATCC 12228", "setting": "[1]", "value": 2}, {"measurement": "zone score, E. faecalis CL 4877", "setting": "E. faecalis (CL 4877)", "value": 2}, {"measurement": "zone score, S. aureus ATCC 29213", "setting": "S. aureus (ATCC 29213)", "value": 2}]}
{"smiles": "CC(O)C(N)C(=O)NC1C(=O)NC(CC(N)=O)C(=O)NC2C(=O)NC3C(=O)NC(C(=O)NC(C(=O)O)c4cc(O)cc(O)c4-c4cc3ccc4O)C(O)c3ccc(c(Cl)c3)Oc3cc2cc(c3OC2OC(CO)C(O)C(O)C2OC2CC(C)(NCc3ccc(-c4ccc(Cl)cc4)cc3)C(O)C(C)O2)Oc2ccc(cc2Cl)C1O", "note": "(stereo not drawn) [Compound 323]", "values": [{"measurement": "zone score, S. epidermidis ATCC 12228", "setting": "[1]", "value": 2}, {"measurement": "zone score, E. faecalis CL 4877", "setting": "E. faecalis (CL 4877)", "value": 2}, {"measurement": "zone score, S. aureus ATCC 29213", "setting": "S. aureus (ATCC 29213)", "value": 2}]}
{"smiles": "CNC(COCc1ccccc1)C(=O)NC1C(=O)NC(CC(N)=O)C(=O)NC2C(=O)NC3C(=O)NC(C(=O)NC(C(=O)O)c4cc(O)cc(O)c4-c4cc3ccc4O)C(O)c3ccc(c(Cl)c3)Oc3cc2cc(c3OC2OC(CO)C(O)C(O)C2OC2CC(C)(NCc3ccc(-c4ccc(Cl)cc4)cc3)C(O)C(C)O2)Oc2ccc(cc2Cl)C1O", "note": "(stereo not drawn) [Compound 331]", "values": [{"measurement": "MIC E. faecium ATCC 49624", "setting": "E. faecium ATCC 49624", "value": 0.39, "unit": "µg/mL"}, {"measurement": "MIC S. aureus ATCC 33591", "setting": "S. Aureus ATCC 33591", "value": 0.78, "unit": "µg/mL"}, {"measurement": "MIC S. aureus ATCC 29213", "setting": "S aureus ATCC 29213", "value": 0.78, "unit": "µg/mL"}]}
{"smiles": "CC1OC(OC2C(Oc3c4cc5cc3Oc3ccc(cc3Cl)C(O)C3NC(=O)C(NC(=O)C5NC(=O)C(CC(N)=O)NC(=O)C(NC(=O)C(N)Cc5c[nH]cn5)C(O)c5ccc(c(Cl)c5)O4)c4ccc(O)c(c4)-c4c(O)cc(O)cc4C(C(=O)O)NC3=O)OC(CO)C(O)C2O)CC(C)(NCc2ccc(-c3ccc(Cl)cc3)cc2)C1O", "note": "(stereo not drawn) [Compound 555]", "values": [{"measurement": "MIC E. faecium ATCC 49624", "setting": "E. faecium ATCC 49624", "value": 0.39, "unit": "µg/mL"}, {"measurement": "MIC S. aureus ATCC 33591", "setting": "S. Aureus ATCC 33591", "value": 0.39, "unit": "µg/mL"}, {"measurement": "MIC S. aureus ATCC 29213", "setting": "S aureus ATCC 29213", "value": 0.78, "unit": "µg/mL"}]}
